Entries after “also recorded” stand apart in the source; their conditions may differ. Read-outs that look alike come from different tables or passages of the source.
Tests used:
GST-TCPTP = target: T1, GST-TCPTP (Homo sapiens, UniProt P17706); assay: Colorimetric pNPP assay of inhibition against TCPTP
T1 sequence (P17706 1-415): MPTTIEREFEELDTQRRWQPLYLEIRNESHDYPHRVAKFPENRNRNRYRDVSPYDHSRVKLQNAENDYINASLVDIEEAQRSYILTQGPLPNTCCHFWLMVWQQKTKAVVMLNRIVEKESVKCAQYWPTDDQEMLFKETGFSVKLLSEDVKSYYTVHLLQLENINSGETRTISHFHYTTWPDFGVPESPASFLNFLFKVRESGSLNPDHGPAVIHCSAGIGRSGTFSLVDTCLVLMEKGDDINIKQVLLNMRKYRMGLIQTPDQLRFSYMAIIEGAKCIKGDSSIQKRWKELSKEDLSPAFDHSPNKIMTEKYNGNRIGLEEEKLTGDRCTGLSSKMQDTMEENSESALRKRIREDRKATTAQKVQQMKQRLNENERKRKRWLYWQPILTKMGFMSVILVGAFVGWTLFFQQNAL
Experimental: (§1) A colorimetric assay to measure inhibition against PTP1B and TCPTP was performed in 96-well plates. […] Briefly, the tested compounds were solubilized in DMSO and serially diluted into concentrations for the inhibitory test.

GST-PTP1B = target: T2, GST-PTP1B (Homo sapiens, UniProt P18031); assay: Colorimetric pNPP assay of inhibition against PTP1B; type: biochemical; conditions: for IC50: means ± SD of three replications, pNPP substrate, pH 6.5, 30 °C; for TCPTP/PTP1B, the ratio of IC50 of TCPTP and PTP1B: selectivity over TCPTP;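 for all read-outs here: colorimetric inhibition readout run in 96-well plates, with PTP1B and TCPTP both tested in the same assay format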
T2 sequence (P18031 1-435): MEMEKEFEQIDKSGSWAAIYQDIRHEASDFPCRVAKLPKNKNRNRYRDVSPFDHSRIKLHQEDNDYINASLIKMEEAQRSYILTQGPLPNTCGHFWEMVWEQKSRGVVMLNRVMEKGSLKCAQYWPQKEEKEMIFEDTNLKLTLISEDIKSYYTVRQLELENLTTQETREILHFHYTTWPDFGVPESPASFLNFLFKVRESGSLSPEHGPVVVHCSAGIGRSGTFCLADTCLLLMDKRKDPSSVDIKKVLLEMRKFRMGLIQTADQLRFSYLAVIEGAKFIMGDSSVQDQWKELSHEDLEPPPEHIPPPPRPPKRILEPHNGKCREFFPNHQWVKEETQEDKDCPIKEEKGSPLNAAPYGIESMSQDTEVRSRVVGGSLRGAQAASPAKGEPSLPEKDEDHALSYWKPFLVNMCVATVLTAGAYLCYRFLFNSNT
Experimental: as §1

PTP1B = target: T3, PTP1B (Homo sapiens, UniProt P18031); assay: PTP1B enzyme kinetic study (Michaelis-Menten, Lineweaver-Burk plot); type: biochemical
T3 sequence (P18031 1-435): T2 sequence (P18031 1-435)

[1] = read-out: IC50 against PTP1B (Table 1)

Row | SMILES | IC50 (GST-TCPTP) | IC50 (GST-PTP1B; read-out: IC50 PTP1B (Table 2)) | TCPTP/PTP1B, the ratio of IC50 of TCPTP and PTP1B (GST-PTP1B) | IC50 (GST-PTP1B; [1]) | PTP1B inhibitory activity, fold higher than compound 18 (GST-PTP1B; relative to compound 18) | Ki (PTP1B; 30 nM PTP1B, pNPP up to 80 mM, pH 6.5, read-out: inhibitory constant Ki) | mode of inhibition of PTP1B (PTP1B; Vmax constant, Km increased with compound concentration)
1 | O=C(O)c1cccc(/C=C/c2ccc(OCc3cc(-c4ccccc4Cl)on3)cc2)c1 [Compound 19, (E)-3-(4-((5-(2-Chlorophenyl)isoxazol-3-yl)methoxy)styryl)benzoic acid] | 36.2 ± 3.82 µM | 1.75 ± 0.82 µM | 20.7 |  |  |  | 
2 | O=C(O)c1cccc(/C=C/c2ccc(OCc3cc(-c4ccc(F)c(F)c4)on3)cc2)c1 [Compound 30, (E)-3-(4-((5-(3,4-Difluorophenyl)isoxazol-3-yl)methoxy)styryl)benzoic acid] | 6.02 ± 1.13 µM | 1.22 ± 0.48 µM | 4.9 |  |  |  | 
3 | C[C@H](CCC(=O)O)[C@H]1CC[C@H]2[C@@H]3CC[C@@H]4C[C@H](O)CC[C@]4(C)[C@H]3CC[C@]12C [Lithocholic acid, lithocholic acid, reference compound] | 20.9 ± 3.66 µM | 12.5 ± 2.51 µM | 1.7 |  |  |  | 
4 | O=C(O)c1cccc(/C=C/c2ccc(OCc3cc(-c4cccc(F)c4)on3)cc2)c1 [Compound 22, (E)-3-(4-((5-(3-Fluorophenyl)isoxazol-3-yl)methoxy)styryl)benzoic acid] | > 40 µM | > 20 µM |  |  |  |  | 
5 | O=C(O)c1cccc(/C=C/c2ccc(OCc3cc(-c4cccc(Br)c4)on3)cc2)c1 [Compound 23, (E)-3-(4-((5-(3-Bromophenyl)isoxazol-3-yl)methoxy)styryl)benzoic acid] | > 40 µM | 9.85 ± 2.04 µM |  |  |  |  | 
6 | COC(=O)c1cccc(/C=C/c2ccc(OCc3cc(-c4ccccc4)on3)cc2)c1 [Compound 18d] |  |  |  | 23.7 ± 3.62 µM |  |  | 
7 | O=C(O)c1cccc(/C=C/c2ccc(OCc3cc(-c4ccc(Cl)c(Cl)c4)on3)cc2)c1 [Compound 29, (E)-3-(4-((5-(3,4-Dichlorophenyl)isoxazol-3-yl)methoxy)styryl)benzoic acid] | 3.78 ± 0.22 µM | 0.91 ± 0.33 µM | 4.2 |  |  | 0.78 µM | competitive PTP1B inhibitor; also recorded: competitive inhibition
8 | Cc1cccc(-c2cc(COc3ccc(/C=C/c4cccc(C(=O)O)c4)cc3)no2)c1 [Compound 24, (E)-3-(4-((5-(m-Tolyl)isoxazol-3-yl)methoxy)styryl)benzoic acid] | 18.9 ± 1.18 µM | 3.68 ± 1.12 µM | 5.1 |  |  |  | 

Now from value to compound, other results behind:

Row | IC50 (GST-TCPTP) | IC50 (GST-PTP1B; read-out: IC50 PTP1B (Table 2)) | TCPTP/PTP1B, the ratio of IC50 of TCPTP and PTP1B (GST-PTP1B) | IC50 (GST-PTP1B; [1]) | PTP1B inhibitory activity, fold higher than compound 18 (GST-PTP1B; relative to compound 18) | Ki (PTP1B; 30 nM PTP1B, pNPP up to 80 mM, pH 6.5, read-out: inhibitory constant Ki) | SMILES | mode of inhibition of PTP1B (PTP1B; Vmax constant, Km increased with compound concentration)
9 | 8.02 ± 0.99 µM | 2.23 ± 0.51 µM | 3.6 |  |  |  | COc1ccc(-c2cc(COc3ccc(/C=C/c4cccc(C(=O)O)c4)cc3)no2)cc1 [Compound 27, (E)-3-(4-((5-(4-Methoxyphenyl)isoxazol-3-yl)methoxy)styryl)benzoic acid] | 
10 | 5.19 ± 0.31 µM | 3.34 ± 0.81 µM | 1.6 |  |  |  | O=C(O)c1cccc(/C=C/c2ccc(OCc3cc(-c4ccc(F)cc4)on3)cc2)c1 [Compound 28, (E)-3-(4-((5-(4-Fluorophenyl)isoxazol-3-yl)methoxy)styryl)benzoic acid] | 
11 | 7.67 ± 0.35 µM | 3.56 ± 0.28 µM | 2.2 |  |  |  | Cc1ccc(-c2cc(COc3ccc(/C=C/c4cccc(C(=O)O)c4)cc3)no2)cc1 [Compound 26, (E)-3-(4-((5-(p-Tolyl)isoxazol-3-yl)methoxy)styryl)benzoic acid] | 
12 | 9.58 ± 0.33 µM |  | 1.5 | 6.33 ± 1.02 µM |  |  | O=C(O)c1cccc(/C=C/c2ccc(OCc3cc(-c4ccccc4)on3)cc2)c1 [Compound 18, (E)-3-(4-((5-Phenylisoxazol-3-yl)methoxy)styryl)benzoic acid] | 
13 |  |  |  | 20.7 ± 3.83 µM |  |  | O=C(O)c1cccc(/C=C/c2ccc(OCc3conc3-c3ccccc3)cc2)c1 [Compound 15, (E)-3-(4-((3-Phenylisoxazol-4-yl)methoxy)styryl)benzoic Acid] | 
14 | > 40 µM | 7.66 ± 1.05 µM |  |  |  |  | COc1ccccc1-c1cc(COc2ccc(/C=C/c3cccc(C(=O)O)c3)cc2)no1 [Compound 20, (E)-3-(4-((5-(2-Methoxyphenyl)isoxazol-3-yl)methoxy)styryl)benzoic acid] | 
15 |  |  |  | 15.7 ± 2.15 µM |  |  | Cc1onc(-c2ccccc2)c1COc1ccc(/C=C/c2cccc(C(=O)O)c2)cc1 [Compound 17, (E)-3-(4-((5-Methyl-3-phenylisoxazol-4-yl)methoxy)styryl)benzoic acid] | 
16 | 13.2 ± 1.7 µM | 2.05 ± 0.54 µM | 6.5 |  | 3 fold |  | O=C(O)c1cccc(/C=C/c2ccc(OCc3cc(-c4cccc([N+](=O)[O-])c4)on3)cc2)c1 [Compound 25, (E)-3-(4-((5-(3-Nitrophenyl)isoxazol-3-yl)methoxy)styryl)benzoic acid] | 
17 | 7.58 ± 1.32 µM | 5.37 ± 1.53 µM | 1.4 |  |  |  | O=C(O)c1cccc(/C=C/c2ccc(OCc3cc(-c4cccc(Cl)c4)on3)cc2)c1 [Compound 21, (E)-3-(4-((5-(3-Chlorophenyl)isoxazol-3-yl)methoxy)styryl)benzoic acid] | 
18 |  |  |  | 16.2 ± 4.52 µM |  |  | O=C(O)c1cccc(/C=C/c2ccc(OCc3cnoc3-c3ccccc3)cc2)c1 [Compound 16, (E)-3-(4-((5-Phenylisoxazol-4-yl)methoxy)styryl)benzoic acid] | 

— PMC6274251, “Design, Synthesis and Biological Evaluation of Stilbene Derivatives as Novel Inhibitors of Protein Tyrosine Phosphatase 1B” (Molecules, 2016)
